Patent US20230150984A1, “NICOTINAMIDE MONONUCLEOTIDE AND NICOTINAMIDE RIBOSIDE DERIVATIVES AND USE THEREOF IN THE TREATMENT OF VIRAL INFECTIONS AND RESPIRATORY COMPLICATIONS, IN […] BY INFL[…] CORONAVIRUS” (NUVAMID SA, priority 2020, published 2023)
“Also recorded” adds a separate entry of the source.

Legend:
[1] = test system: Influenza virus H1N1 PR/8/34; test: Murine influenza virus H1N1 PR/8/34 pulmonary infection, lethal dose (Example 2); assay type: in vivo, mice; details: for body weight evolution D0 to D14 in comparison to vehicle / clinical score / clinical states of the mice D0 to D14: 500 PFU H1N1, I-A 185 mg/kg i.p., Tamiflu 1 mg/kg oral twice a day; for viral load in lung: 8 days after infection with 500 PFU of influenza A virus, vs vehicle group; for survival rate at D14: mice infected intranasally with 500 PFU H1N1 PR/8/34, Tamiflu 1 mg/kg oral gavage twice a day, D0-D14
H1N1 = test: NMN and NR on influenza virus pulmonary infection in mice (Example 7); assay type: in vivo; details: H1N1 infected mice; for Remaining mice, Day 11 / Remaining mice, Day 14: 12 per group, loss of 25% or more bodyweight counted as dead; for Remaining mice, Day 11 / Remaining mice, Day 14 / survival rate at the end of the experiment: I-A or I-G 185 mg/kg i.p. daily, Tamiflu 2x1 mg/kg oral; for body weight loss in comparison to vehicle: I-A or I-G 185 mg/kg, Tamiflu 2 mg/kg, D0 to D14
Protocol: The compounds I-A and I-G were delivered by intraperitoneal route at 185 mg/kg daily during all the experiment. 72 mice were daily weighed to adapt the volume of compounds. Physiological buffer was used as control and was administrated by i.p once per day during all the experiment. Control animals were orally administrated with Tamiflu at 2 mg/kg during all the experiment. Each animal has been infected with H1N1. The experimental groups are as follows: • vehicle: H1N1 infection+physiological buffer • Tamiflu: H1N1 infection+Tamiflu (2×1 mg/kg) • Compound I-A: H1N1 infection+NMN (185 mg/kg) • Compound I-G: H1N1 infection+NR (185 mg/kg) • Tamiflu+Compound I-A: H1N1 infection+Tamiflu (2×1 mg/kg)+Compound I-A (185 mg/kg) • Tamiflu+Compound I-G: H1N1 infection+Tamiflu (2×1 mg/kg)+Compound I-G (185 mg/kg)
Survival rates, body weight and clinical scores were monitored during all the experiment.
Survival rates (FIG. 7): Animals which lost 25% or more bodyweight, were euthanized for ethical reasons and considered as dead. Survival rates were monitored during all the experiment. […]
Respiratory scoring (FIG. 10): the respiratory scoring was assessed according to the following criteria: […]

[2] = test system: Influenza virus H1N1 PR/8/34 strain; test: Compound I-A dose-response on influenza virus pulmonary infection (Example 8); assay type: in vivo, mice; details: for Remaining mice, Day 10 / Remaining mice, Day 14: 500 PFU H1N1 PR/8/34, 12 mice; for viral load in lung: 8 days after infection with 500 PFU of influenza A virus
Protocol: The model consists in intranasal administration of 500 PFU of Influenza virus H1N1 PR/8/34 strain to induce pneumonia. Compound I-A was delivered by intraperitoneal (i.p.) route at 90, 185 or 500 mg/kg immediately after infection and then daily during all the experiment. Mice were daily weighed to adapt the volume of compounds. Physiological buffer was used as control and was administrated by i.p once per day during all the experiment. Each experimental group comprises 22 mice: 12 mice for the survival study, 5 mice of the flow cytometry analysis and 5 mice for the assessment of viral load.
The experimental groups are the following: • Group 1: Vehicle (i.p.) • Group 2: Compound I-A 90 mg/kg • Group 3: Compound I-A 185 mg/kg • Group 4: Compound I-A 500 mg/kg
At day 8, 5 mice per group are use to measure the following parameters. • Blood collection: 3 aliquots (a, b and c) a)+ac. perchlorique (NAD dosage) b) immune cell characterization (cytometry) c) remaining plasma->freezing • Lung and lymph nodes collection, cell preparation, counting and immune cell characterization (cytometry) • Remaining cells (if any) from the 2 tissues treated for RNAseq • Viral load in the lungs (5 mice per group)
Survival rates, body weight, clinical scores, viral load in lungs and quantification of subsets of immune population in lung, blood and draining lymph node at day 8 post-infection by flow cytometry were monitored during all the experiment.
Survival (FIG. 11): Animals which lost 25% or more bodyweight, were euthanized for ethical reasons and considered as dead. Survival rates were monitored during all the experiment. […]

[3] = I-A 90, 185 or 500 mg/kg i.p. daily

Compound: NC(=O)c1ccc[n+]([C@@H]2O[C@H](COP(=O)(O)O)[C@@H](O)[C@H]2O)c1 [Compound I-A, Nicotinamide mononucleotide]
- body weight evolution D0 to D14 in comparison to vehicle [1]: slight improvement
- clinical score / clinical states of the mice D0 to D14 [1]: significantly improved clinical states
- viral load in lung [1]: no impact
- H1N1 induced lymphopenia in blood (T cells levels) ([1]; D8, cytometry on blood): reduced H1N1 induced lymphopenia
- recruitment of monocyte-derived macrophages and dendritic cells and CD8+ T cells in infected lungs ([1]; D8 post-inoculation, cytometry on lung): reduced the recruitment
- circulating monocytes ([1]; D8 post-inoculation, in comparison to vehicle and oseltamivir-treated animals): decreased circulating monocytes
- animal mortality / efficacy on survival ([1]; I-A 185 mg/kg i.p. once a day, compared to untreated control animals or oseltamivir, 185 mg/kg): reduce animal mortality; also recorded: more effective than oseltamivir
- survival rate at D14 ([1]; I-A 185 mg/kg i.p. once a day): 67%
- Remaining mice, Day 11 (H1N1): 7/12
- Remaining mice, Day 14 (H1N1): 7/12
- survival rate at the end of the experiment (H1N1): 58%
- body weight loss in comparison to vehicle (H1N1): decrease the body weight loss
- mice survival rate ([2]; I-A 90 mg/kg i.p. daily): 33%
- Remaining mice, Day 10 ([2]; I-A 90 mg/kg i.p. daily): 8/12
- Remaining mice, Day 14 ([2]; I-A 90 mg/kg i.p. daily): 4/12
- viral load in lung ([2]; I-A 90 mg/kg): no significative impact
- mice survival rate ([2]; I-A 185 mg/kg i.p. daily): 58%
- Remaining mice, Day 10 ([2]; I-A 185 mg/kg i.p. daily): 12/12
- Remaining mice, Day 14 ([2]; I-A 185 mg/kg i.p. daily): 7/12
- viral load in lung ([2]; I-A 185 mg/kg): no significative impact
- mice survival rate ([2]; I-A 500 mg/kg i.p. daily): 75%
- Remaining mice, Day 10 ([2]; I-A 500 mg/kg i.p. daily): 10/12
- Remaining mice, Day 14 ([2]; I-A 500 mg/kg i.p. daily): 9/12
- viral load in lung (quantity of H1N1 particles) ([2]; I-A 500 mg/kg, 8 days after infection, in comparison to the vehicle group): significantly reduced the quantity of H1N1 particles
- body weight in comparison to vehicle (D3-D8) [2, 3]: weak improvement
- clinical scores / clinical states of the mice compared to vehicle group [2, 3]: improved clinical states
- modulation of the recruitment of monocyte derived macrophages ([2]; lung, day 8, flow cytometry): not observed
- number of CD11b+DC ([2]; lung, day 8, flow cytometry): tended to be reduced
- proportion of CD206+ macrophages ([2]; lung, day 8, flow cytometry): increased
- destruction of alveolar macrophages due to the infection ([2]; lung, day 8, flow cytometry, effect did not seem dose dependent): reduced

Compound: NC(=O)c1ccc[n+]([C@@H]2O[C@H](CO)[C@@H](O)[C@H]2O)c1 [Compound I-G, NICOTINAMIDE RIBOSIDE]
- Remaining mice, Day 11 (H1N1): 6/12
- Remaining mice, Day 14 (H1N1): 6/12
- survival rate at the end of the experiment (H1N1): 50%
- body weight loss in comparison to vehicle (H1N1): decrease the body weight loss

Compound: CCOC(=O)C1=C[C@@H](OC(CC)CC)[C@H](NC(C)=O)[C@@H](N)C1 [Tamiflu, oseltamivir, reference compound]
- body weight evolution D0 to D14 in comparison to vehicle [1]: slight improvement
- clinical score / clinical states of the mice D0 to D14 [1]: significantly improved clinical states
- viral load in lung [1]: no impact
- survival rate at D14 ([1]; I-A 185 mg/kg i.p. once a day): 58%
- Remaining mice, Day 11 (H1N1): 8/12
- Remaining mice, Day 14 (H1N1): 6/12
- survival rate at the end of the experiment (H1N1): 50%
- body weight loss in comparison to vehicle (H1N1): decrease the body weight loss
